Results on 1 molecule are retold here after patent US20030125321A1, “Methods and compositions for treating respiratory pathologies” (priority 2001, published 2003).

The test system of the data set is male Wistar rats. Put plainly: Pulmonary paracellular permeability to 125I labelled human serum albumin after intratracheal Pseudomonas aeruginosa LPS. In kind it is in vivo, rat. On the procedure: Pulmonary permeability was measured by means of a tracer, ^125I -labelled human serum albumin which, after intratracheal infusion, was determined in urine, plasma, lung tissue and bronchoalveolar lavage fluid.
For this experiment, three groups of 6 male Wistar rats (200-225 g) were pretreated either with ML-7 by the IP route (3 mg/kg then 1 mg/kg 3 times a day for 48 h) or the vehicle (ethanol 10%). One hour after the next-to-last administration of ML-7, under urethane anesthesia ([…] IP), a slow intratracheal infusion of 150 μl of an iso-osmolar solution (5% bovine albumin +PBS) containing the tracer and containing (2 groups) or not containing (control group) LPS (1 μg/rat) was given.
Four hours after the intratracheal infusion, urine, blood, bronchoalveolar lavage (BAL) and lungs were harvested and ^125I radioactivity was measured on each sample.

Molecules are shown by their SMILES.

As to `O=S(=O)(c1cccc2c(I)cccc12)N1CCCNCC1` [ML-7, 1-(5-iodonaphtalene-1-sulfonyl)-1H-hexahydro-1,4-diazepine], the “LPS-induced increase in pulmonary permeability” value (ML-7 pretreatment IP 3 mg/kg then 1 mg/kg 3 times a day for 48 h) was “inhibited”. Also, the “effect on vascular endothelial cells (endothelium permeability, tone, pulmonary circulating hemodynamics)” value (inferred from unchanged plasma radioactivity) is reported as “does not present effect”.
